Test system: 192522-019-R-J2-PDC complex tumor spheroid viability
Experiment: Anticancer human tumor 192522-019-R-J2-PDC patient-derived colon adenocarcinoma cell line growth inhibition [POLQ]
Details: for IC50: curve of first compound; for viability, T/C: stronger effect = lower value
Experimental: Multicellular complex tumor spheroid response to Polymerase (POL) inhibitors (novobiocin, ART-558, RP6685) in combination with a variety of drugs and investigational agents in selected tumor cell lines
The POL inhibitors (novobiocin, ART-558, and RP6685) were evaluated both individually and in combination with standard of care and investigational anticancer small molecules within a complex spheroid model of solid tumors. . Complex spheroids include a stromal component modeled by human endothelial cells (HUVEC) and fibroblasts modeled by human mesenchymal stem cells (MSCs). The concentration ranges selected for each drug and investigational agent were based upon clinically achievable concentrations if the clinical Cmax of the agent was known.
Compounds. The drugs and investigational agents: novobiocin (NSC847541), ART-558 (NSC835418), RP-6685 (NSC848927), peposertib (NSC802822), ceralasertib (NSC780249), elimusertib (NSC800525), camonsertib (NSC841442), AZD-1390 (NSC803789), olaparib (NSC753686), talazoparib (NSC767125), rucaparib (NSC756644), sotorasib (NSC818433), MRTX-1133 (NSC836407), SN-38 (NSC673596), topotecan (NSC609699), epotoside (NSC141540), doxorubicin (NSC123127), gemcitabine (NSC613327), 5-fluorouracil (NSC19893), paclitaxel (NSC125973), vemurafenib (NSC761431), MSA-2 (NSC828583), SN-011 (NSC837082), adavosertib (NSC754352), prexasertib (NSC758257), carboplatin (NSC241240) and oxaliplatin (NSC266046), were obtained from the National Cancer Institute (NCI) Developmental Therapeutics Program Chemical Repository (21). The FDA-approved anticancer drug set is available from the Developmental Therapeutics Program at https://dtp.cancer.gov/organization/dscb/obtaining/. […] The stock solutions were prepared in dimethyl sulfoxide (DMSO, Sigma-Aldrich, St. Louis, MO, cat. D2650), except for the platinum compounds which were prepared in saline (Quality Biological, Gaithersburg, MD, cat. 114-055-101), at 800-fold the tested concentration and stored at -70 degrees C prior to their use. All drugs and investigational agents were tested over a range starting from a high concentration at or near the clinical Cmax and decreasing in half-log increments. If the clinical Cmax for an agent had not been determined, the highest concentration tested was 10 microM, except for SN-38, which was tested at a high concentration of 1 microM.
Cell Culture. All cells were maintained in an incubator at 37 degrees C and 5% CO2 with 95% humidity. The PDC lines were cultured according to standard operating procedures established by the NCI PDMR (https://pdmr.cancer.gov). Table 3 of the manuscript, lists the cell lines along with the number of the three cell types plated to form the mct-spheroids and media for tumor cell growth. After thawing, all PDC lines, except 997537-175-T-J1-PDC and 415267-285-R-J2-PDC, were cultured in Matrigel-coated flasks prepared with a working solution of 1X Ham's F-12 nutrient mix, without supplementation (Thermo Fisher Scientific, cat. 11765054), 100 U/mL penicillin-streptomycin (Thermo Fisher Scientific, cat. 15140122), and 2.5% Matrigel (Corning Inc., Corning, NY, cat. 354248) for the first three passages. The two PDC lines 997537-175-T-J1-PDC and 415267-285-R-J2-PDC were cultured on uncoated flasks. The 857933-349-R-J2-PDC line was cultured in 6C/Colon 1B media containing advanced DMEM/F-12 (Thermo Fisher Scientific, cat. 12634028), 10 mM HEPES (Thermo Fisher Scientific, cat. 15630080), 1X GlutaMAX supplement (Thermo Fisher Scientific, cat. 35050061), 0.1 mg/mL primocin (InvivoGen, San Diego, CA, cat. ant-pm-2), 10% defined fetal bovine serum, heat inactivated (HyClone Laboratories Inc., Logan, UT, cat. SH30070.03HI), 50% L-WRN conditioned media (ATCC, cat. CRL-3276), 1.25 mM N-Acetyl-L-cysteine (Sigma-Aldrich, cat. A9165), 10 mM nicotinamide (Sigma-Aldrich, cat. N0636), 1X B-27 supplement (Thermo Fisher Scientific, cat. 17504044), 1X N-2 supplement (Thermo Fisher Scientific, cat. […]

[1] = second compound 0.0316 µM, first compound 0.0316 µM
[2] = second compound 0.0316 µM, first compound 0.1 µM
[3] = second compound 0.0316 µM, first compound 0.316 µM
[4] = second compound 0.0316 µM, first compound 1 µM
[5] = second compound 0.1 µM, first compound 0.0316 µM
[6] = second compound 0.1 µM, first compound 0.1 µM
[7] = second compound 0.1 µM, first compound 0.316 µM
[8] = second compound 0.1 µM, first compound 1 µM
[9] = second compound 0.316 µM, first compound 0.0316 µM
[10] = second compound 0.316 µM, first compound 0.1 µM
[11] = second compound 0.316 µM, first compound 0.316 µM
[12] = second compound 0.316 µM, first compound 1 µM
[13] = second compound 1 µM, first compound 0.0316 µM
[14] = second compound 1 µM, first compound 0.1 µM
[15] = second compound 1 µM, first compound 0.316 µM
[16] = second compound 1 µM, first compound 1 µM
[17] = second compound 3.16 µM, first compound 0.0316 µM
[18] = second compound 3.16 µM, first compound 0.1 µM
[19] = second compound 3.16 µM, first compound 0.316 µM
[20] = second compound 3.16 µM, first compound 1 µM
[21] = second compound 10 µM, first compound 0.0316 µM
[22] = second compound 10 µM, first compound 0.1 µM
[23] = second compound 10 µM, first compound 0.316 µM
[24] = second compound 10 µM, first compound 1 µM
[25] = second compound 0.0316 µM, first compound 3.16 µM
[26] = second compound 0.0316 µM, first compound 10 µM
[27] = second compound 0.1 µM, first compound 3.16 µM
[28] = second compound 0.1 µM, first compound 10 µM
[29] = second compound 0.316 µM, first compound 3.16 µM
[30] = second compound 0.316 µM, first compound 10 µM
[31] = second compound 1 µM, first compound 3.16 µM
[32] = second compound 1 µM, first compound 10 µM
[33] = second compound 3.16 µM, first compound 3.16 µM
[34] = second compound 3.16 µM, first compound 10 µM
[35] = second compound 10 µM, first compound 3.16 µM
[36] = second compound 10 µM, first compound 10 µM
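Further: spheroids exposed to drugs for seven days before reading.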
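Wherever viability, T/C is given: 100% = DMSO vehicle control viability in luminescence.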

C=CCn1c(=O)c2cnc(Nc3ccc(N4CCN(C)CC4)cc3)nc2n1-c1cccc(C(C)(C)O)n1 + Cc1cccc(N(C)C(=O)C2C(O)CCN2c2nc(C)cc(C(F)(F)F)c2C#N)c1
IC50 (second compound 0.0316 µM): 0.796 µM
IC50 (second compound 0.1 µM): 0.812 µM
IC50 (second compound 0.316 µM): 0.893 µM
IC50 (second compound 1 µM): > 1 µM
IC50 (second compound 3.16 µM): > 1 µM
IC50 (second compound 10 µM): 0.916 µM
viability, T/C (second compound 0.0316 µM, first compound 0.00316 µM): 98.9%
viability, T/C (second compound 0.0316 µM, first compound 0.01 µM): 106%
viability, T/C [1]: 102%
viability, T/C [2]: 108%
viability, T/C [3]: 92.6%
viability, T/C [4]: 39.5%
viability, T/C (second compound 0.1 µM, first compound 0.00316 µM): 99.7%
viability, T/C (second compound 0.1 µM, first compound 0.01 µM): 99.3%
viability, T/C [5]: 102%
viability, T/C [6]: 106%
viability, T/C [7]: 90%
viability, T/C [8]: 40.4%
viability, T/C (second compound 0.316 µM, first compound 0.00316 µM): 111%
viability, T/C (second compound 0.316 µM, first compound 0.01 µM): 110%
viability, T/C [9]: 105%
viability, T/C [10]: 110%
viability, T/C [11]: 98.6%
viability, T/C [12]: 44.4%
viability, T/C (second compound 1 µM, first compound 0.00316 µM): 112%
viability, T/C (second compound 1 µM, first compound 0.01 µM): 95.2%
viability, T/C [13]: 107%
viability, T/C [14]: 109%
viability, T/C [15]: 105%
viability, T/C [16]: 50.4%
viability, T/C (second compound 3.16 µM, first compound 0.00316 µM): 116%
viability, T/C (second compound 3.16 µM, first compound 0.01 µM): 110%
viability, T/C [17]: 109%
viability, T/C [18]: 106%
viability, T/C [19]: 89%
viability, T/C [20]: 56.9%
viability, T/C (second compound 10 µM, first compound 0.00316 µM): 109%
viability, T/C (second compound 10 µM, first compound 0.01 µM): 115%
viability, T/C [21]: 119%
viability, T/C [22]: 105%
viability, T/C [23]: 102%
viability, T/C [24]: 45.6%

CC(C)n1c(=O)n(C)c2cnc3cc(F)c(-c4ccc(OCCCN5CCCCC5)nc4)cc3c21 + Cc1cccc(N(C)C(=O)C2C(O)CCN2c2nc(C)cc(C(F)(F)F)c2C#N)c1
IC50 (second compound 0.0316 µM): > 10 µM
IC50 (second compound 0.1 µM): > 10 µM
IC50 (second compound 0.316 µM): > 10 µM
IC50 (second compound 1 µM): > 10 µM
IC50 (second compound 3.16 µM): > 10 µM
IC50 (second compound 10 µM): > 10 µM
viability, T/C [1]: 113%
viability, T/C [2]: 87%
viability, T/C [3]: 102%
viability, T/C [4]: 103%
viability, T/C [25]: 116%
viability, T/C [26]: 99.3%
viability, T/C [5]: 104%
viability, T/C [6]: 99%
viability, T/C [7]: 107%
viability, T/C [8]: 107%
viability, T/C [27]: 99.8%
viability, T/C [28]: 99.5%
viability, T/C [9]: 94%
viability, T/C [10]: 98.4%
viability, T/C [11]: 108%
viability, T/C [12]: 105%
viability, T/C [29]: 127%
viability, T/C [30]: 104%
viability, T/C [13]: 98.9%
viability, T/C [14]: 110%
viability, T/C [15]: 106%
viability, T/C [16]: 123%
viability, T/C [31]: 116%
viability, T/C [32]: 105%
viability, T/C [17]: 92%
viability, T/C [18]: 103%
viability, T/C [19]: 114%
viability, T/C [20]: 118%
viability, T/C [33]: 134%
viability, T/C [34]: 105%
viability, T/C [21]: 105%
viability, T/C [22]: 94.1%
viability, T/C [23]: 117%
viability, T/C [24]: 114%
viability, T/C [35]: 120%
viability, T/C [36]: 110%

Nc1ccn(C2OC(CO)C(O)C2(F)F)c(=O)n1 (stereo not drawn) + Cc1cccc(N(C)C(=O)C2C(O)CCN2c2nc(C)cc(C(F)(F)F)c2C#N)c1
IC50 (second compound 0.0316 µM): > 10 µM
IC50 (second compound 0.1 µM): > 10 µM
IC50 (second compound 0.316 µM): > 10 µM
IC50 (second compound 1 µM): > 10 µM
IC50 (second compound 3.16 µM): > 10 µM
IC50 (second compound 10 µM): > 10 µM
viability, T/C [1]: 95.9%
viability, T/C [2]: 81.6%
viability, T/C [3]: 81.8%
viability, T/C [4]: 76.2%
viability, T/C [25]: 70.3%
viability, T/C [26]: 57.2%
viability, T/C [5]: 95.9%
viability, T/C [6]: 95.7%
viability, T/C [7]: 80.6%
viability, T/C [8]: 76.5%
viability, T/C [27]: 66.6%
viability, T/C [28]: 55.5%
viability, T/C [9]: 108%
viability, T/C [10]: 95.3%
viability, T/C [11]: 83.2%
viability, T/C [12]: 76.3%
viability, T/C [29]: 65.8%
viability, T/C [30]: 57.6%
viability, T/C [13]: 104%
viability, T/C [14]: 90%
viability, T/C [15]: 80.6%
viability, T/C [16]: 79.9%
viability, T/C [31]: 72.3%
viability, T/C [32]: 56.5%
viability, T/C [17]: 105%
viability, T/C [18]: 98.6%
viability, T/C [19]: 88.6%
viability, T/C [20]: 74%
viability, T/C [33]: 77%
viability, T/C [34]: 59.7%
viability, T/C [21]: 108%
viability, T/C [22]: 83.4%
viability, T/C [23]: 80.5%
viability, T/C [24]: 74.3%
viability, T/C [35]: 76.5%
viability, T/C [36]: 62.3%

O=c1[nH]cc(F)c(=O)[nH]1 + Cc1cccc(N(C)C(=O)C2C(O)CCN2c2nc(C)cc(C(F)(F)F)c2C#N)c1
IC50 (second compound 0.0316 µM): > 10 µM
IC50 (second compound 0.1 µM): > 10 µM
IC50 (second compound 0.316 µM): > 10 µM
IC50 (second compound 1 µM): > 10 µM
IC50 (second compound 3.16 µM): > 10 µM
IC50 (second compound 10 µM): > 10 µM
viability, T/C [1]: 111%
viability, T/C [2]: 88.5%
viability, T/C [3]: 76.8%
viability, T/C [4]: 87.2%
viability, T/C [25]: 91.3%
viability, T/C [26]: 72.4%
viability, T/C [5]: 103%
viability, T/C [6]: 92.8%
viability, T/C [7]: 84.6%
viability, T/C [8]: 81.7%
viability, T/C [27]: 81%
viability, T/C [28]: 85.3%
viability, T/C [9]: 95.5%
viability, T/C [10]: 95.9%
viability, T/C [11]: 85%
viability, T/C [12]: 80.7%
viability, T/C [29]: 78%
viability, T/C [30]: 86.1%
viability, T/C [13]: 96.8%
viability, T/C [14]: 92.9%
viability, T/C [15]: 87.1%
viability, T/C [16]: 96.1%
viability, T/C [31]: 89%
viability, T/C [32]: 82.9%
viability, T/C [17]: 112%
viability, T/C [18]: 88.9%
viability, T/C [19]: 87.1%
viability, T/C [20]: 81.4%
viability, T/C [33]: 93.1%
viability, T/C [34]: 78.6%
viability, T/C [21]: 106%
viability, T/C [22]: 89.1%
viability, T/C [23]: 81.6%
viability, T/C [24]: 83.6%
viability, T/C [35]: 88.3%
viability, T/C [36]: 75.9%
